According to PubChem BioAssay (NCI):
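GI50 marks 50% less growth. The concentration for full growth arrest is given as TGI.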

Columns and labels:
Experiment in all cases: DTP human tumour cell line panel, 384-well format
[1] = test system: OVCAR-8 ovarian
[2] = test system: U251 glioblastoma
[3] = test system: EKVX NSCLC
[4] = test system: T-47D breast
[5] = test system: HOP-62 NSCLC
[6] = test system: NCI-H522 lung
[7] = test system: M14 melanoma
[8] = test system: HCC-2998 colon
[9] = test system: MCF7 breast
[10] = test system: MALME-3M melanoma
[11] = test system: HOP-92 NSCLC
[12] = test system: SR leukemia
[13] = test system: MDA-MB-231 breast
[14] = test system: KM12 colon
[15] = test system: RXF 393 renal
[16] = test system: DU-145 prostate
[17] = test system: HT29 colon
[18] = test system: A498 renal
[19] = test system: NCI-H226 lung
[20] = test system: ACHN renal
[21] = test system: SK-OV-3 ovarian
[22] = test system: UACC-257 melanoma
[23] = test system: COLO 205 colon
[24] = test system: SNB-75 CNS
[25] = test system: NCI-H23 lung
[26] = test system: CCRF-CEM leukemia
[27] = test system: SF-268 CNS
[28] = test system: MOLT-4 leukemia
[29] = test system: SK-MEL-28 melanoma
[30] = test system: OVCAR-4 ovarian
[31] = test system: UACC-62 melanoma
[32] = test system: NCI-H322M lung
[33] = test system: TK-10 renal
[34] = test system: MDA-MB-468 breast
[35] = test system: SF-539 CNS
[36] = test system: MDA-MB-435 melanoma
[37] = test system: NCI-H460 NSCLC
[38] = test system: SK-MEL-2 melanoma
[39] = test system: SK-MEL-5 melanoma
[40] = test system: A549 NSCLC
[41] = test system: HS 578T breast
[42] = test system: OVCAR-3 ovarian
[43] = test system: HL-60(TB) leukemia
[44] = test system: HCT-15 colon
[45] = test system: PC-3 prostate
[46] = test system: BT-549 breast
[47] = test system: IGROV1 ovarian
[48] = test system: 786-0 renal
[49] = test system: RPMI-8226 leukemia
[50] = test system: CAKI-1 renal
[51] = test system: OVCAR-5 ovarian
[52] = test system: SW-620 colon
[53] = test system: SNB-19 CNS
[54] = test system: UO-31 renal
[55] = test system: K-562 leukemia
[56] = test system: SF-295 CNS
[57] = test system: HCT-116 colon
[58] = test system: NCI/ADR-RES ovarian
[59] = test system: SN12C renal

Nc1nc(OCc2ccccc2)c2[nH]cnc2n1
GI50 [1]: 66.4 µM
GI50 [2]: 38.3 µM
GI50 [3]: 43.3 µM
GI50 [4]: 34.5 µM
GI50 [5]: 36.7 µM
GI50 [6]: 20.8 µM
TGI [6]: 60.7 µM
GI50 [7]: 30.4 µM
TGI [7]: 95.8 µM
GI50 [8]: 30.8 µM
GI50 [9]: 56.2 µM
GI50 [10]: 30.9 µM
TGI [10]: 79.1 µM
GI50 [11]: 36.8 µM
GI50 [12]: 30.9 µM
TGI [12]: 78.4 µM
GI50 [13]: 34.6 µM
GI50 [14]: 66.1 µM
GI50 [15]: 32.5 µM
TGI [15]: 88.7 µM
GI50 [16]: 52.3 µM
GI50 [17]: 53.3 µM
GI50 [18]: 19.6 µM
TGI [18]: 91.9 µM
GI50 [19]: 29.3 µM
TGI [19]: 80.7 µM
GI50 [20]: 46.1 µM
GI50 [21]: 23.2 µM
TGI [21]: 50.1 µM
GI50 [22]: 61.6 µM
GI50 [23]: 65.7 µM
GI50 [24]: 19.6 µM
TGI [24]: 76.5 µM
GI50 [25]: 31.8 µM
GI50 [26]: 28.4 µM
TGI [26]: 88.9 µM
GI50 [27]: 66.3 µM
GI50 [28]: 28.9 µM
GI50 [29]: 66.9 µM
GI50 [30]: 64.4 µM
GI50 [31]: 31.4 µM
GI50 [32]: 57.5 µM
GI50 [33]: 15.8 µM
TGI [33]: 60.7 µM
GI50 [34]: 25 µM
TGI [34]: 61 µM
GI50 [35]: 34.7 µM
GI50 [36]: 52.4 µM
GI50 [37]: 37.8 µM
GI50 [38]: 37.2 µM
TGI [38]: 65.8 µM
GI50 [39]: 27.9 µM
GI50 [40]: 64.5 µM
GI50 [41]: 16.6 µM
TGI [41]: 43.7 µM
GI50 [42]: 69.1 µM
GI50 [43]: 30.2 µM
TGI [43]: 78.3 µM
GI50 [44]: 28.4 µM
GI50 [45]: 55.2 µM
GI50 [46]: 26.9 µM
TGI [46]: 78.5 µM
GI50 [47]: 25.7 µM
TGI [47]: 90.5 µM
GI50 [48]: 35.9 µM
GI50 [49]: 18.5 µM
TGI [49]: 37.8 µM
GI50 [50]: 20.8 µM
TGI [50]: 55.9 µM
GI50 [51]: 70.4 µM

O=C1CCC(N2Cc3cc(CNC(=O)C(F)(F)c4ccc(Cl)cc4)ccc3C2=O)C(=O)N1 (stereo not given)
GI50 [1]: 0.059 µM
TGI [1]: > 100 µM
GI50 [2]: > 100 µM
TGI [2]: > 100 µM
GI50 [3]: > 100 µM
TGI [3]: > 100 µM
GI50 [4]: 0.0216 µM
TGI [4]: 17.8 µM
GI50 [5]: 0.835 µM
TGI [5]: > 100 µM
GI50 [8]: 0.0908 µM
TGI [8]: > 100 µM
GI50 [10]: 0.101 µM
TGI [10]: > 100 µM
GI50 [11]: 0.21 µM
TGI [11]: > 100 µM
GI50 [52]: 0.0885 µM
TGI [52]: > 100 µM
GI50 [13]: 0.087 µM
TGI [13]: > 100 µM
GI50 [15]: > 100 µM
TGI [15]: > 100 µM
GI50 [16]: > 100 µM
TGI [16]: > 100 µM
GI50 [53]: > 100 µM
TGI [53]: > 100 µM
GI50 [18]: > 100 µM
TGI [18]: > 100 µM
GI50 [21]: > 100 µM
TGI [21]: > 100 µM
GI50 [22]: > 100 µM
TGI [22]: > 100 µM
GI50 [54]: > 100 µM
TGI [54]: > 100 µM
GI50 [55]: 68.4 µM
TGI [55]: > 100 µM
GI50 [23]: 0.142 µM
TGI [23]: > 100 µM
GI50 [56]: > 100 µM
TGI [56]: > 100 µM
GI50 [24]: 0.463 µM
TGI [24]: > 100 µM
GI50 [25]: > 100 µM
TGI [25]: > 100 µM
GI50 [26]: < 0.01 µM
TGI [26]: 0.015 µM
GI50 [27]: > 100 µM
TGI [27]: > 100 µM
GI50 [28]: < 0.01 µM
TGI [28]: 0.0133 µM
GI50 [29]: > 100 µM
TGI [29]: > 100 µM
GI50 [30]: > 100 µM
TGI [30]: > 100 µM
GI50 [32]: > 100 µM
TGI [32]: > 100 µM
GI50 [33]: > 100 µM
TGI [33]: > 100 µM
GI50 [34]: < 0.01 µM
TGI [34]: 0.0301 µM
GI50 [35]: > 100 µM
TGI [35]: > 100 µM
GI50 [37]: > 100 µM
TGI [37]: > 100 µM
GI50 [57]: > 100 µM
TGI [57]: > 100 µM
GI50 [58]: 24.7 µM
TGI [58]: > 100 µM
GI50 [40]: > 100 µM
TGI [40]: > 100 µM
GI50 [41]: 0.0781 µM
TGI [41]: > 100 µM
GI50 [42]: > 100 µM
TGI [42]: > 100 µM
GI50 [43]: < 0.01 µM
TGI [43]: 0.0106 µM
GI50 [59]: > 100 µM
TGI [59]: > 100 µM
GI50 [44]: 0.744 µM
TGI [44]: > 100 µM
GI50 [46]: 0.0613 µM
TGI [46]: 32.2 µM
GI50 [47]: 0.568 µM
TGI [47]: > 100 µM
GI50 [48]: > 100 µM
TGI [48]: > 100 µM
GI50 [50]: > 100 µM
TGI [50]: > 100 µM
GI50 [51]: > 100 µM
TGI [51]: > 100 µM
